#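 Cells were grown in 96-well plates and exposed to each compound for 48 hours at five concentrations; endpoints were interpolated linearly between bracketing concentrations, or set to the highest concentration if not reached. GI50 = concentration required for 50% inhibition of growth. At the TGI there is no net growth.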
# Tests used:
# Experiment in all cases: inhibition of tumour cell growth, NCI panel, 48 h
# LOX IMVI melanoma = tested on: LOX IMVI melanoma
# NCI-H522 lung = tested on: NCI-H522 lung
# OVCAR-5 ovarian = tested on: OVCAR-5 ovarian
# DLD-1 colon = tested on: DLD-1 colon
# SK-OV-3 ovarian = tested on: SK-OV-3 ovarian
# MDA-MB-435 = tested on: MDA-MB-435
# HOP-18 NSCLC = tested on: HOP-18 NSCLC
# LXFL 529 NSCLC = tested on: LXFL 529 NSCLC
# DMS 273 small cell lung = tested on: DMS 273 small cell lung
# RXF 393 renal = tested on: RXF 393 renal
# SK-MEL-28 melanoma = tested on: SK-MEL-28 melanoma
# XF 498 CNS = tested on: XF 498 CNS
SMILES,TGI (LOX IMVI melanoma) [µM],TGI (NCI-H522 lung) [µM],TGI (OVCAR-5 ovarian) [µM],TGI (DLD-1 colon) [µM],TGI (SK-OV-3 ovarian) [µM],GI50 (MDA-MB-435) [µM],TGI (MDA-MB-435) [µM],TGI (HOP-18 NSCLC) [µM],TGI (LXFL 529 NSCLC) [µM],TGI (DMS 273 small cell lung) [µM],GI50 (RXF 393 renal) [µM],TGI (RXF 393 renal) [µM],TGI (SK-MEL-28 melanoma) [µM],TGI (XF 498 CNS) [µM]
CN(C)CC(=O)N1CCc2c([nH]c3ccccc23)C1c1cccnc1 (stereo not drawn),> 100,> 100,> 100,> 100,> 100,> 100,> 100,> 100,> 100,1.37,> 100,> 100,> 100,> 100
Cc1nc(Nc2ccc(Cl)c(Cl)c2)sc1C(/C=C/c1ccc2c(c1)OCO2)=N/Nc1ccc([N+](=O)[O-])cc1[N+](=O)[O-],> 100,> 100,> 100,> 100,> 100,,> 100,> 100,> 100,> 100,,67.2,> 100,> 48.8
CCOc1ccc(N=Nc2c(-c3ccccc3)nn(C(=O)CC(=O)Nc3ccccc3Cl)c2-c2ccccc2)cc1,> 100,> 100,> 100,> 100,> 100,,,> 100,> 100,> 100,,> 100,> 100,> 100
COc1cc([C@H]2c3cc4c(cc3[C@H](NCc3ccc(F)cc3)C3COC(=O)[C@H]32)OCO4)cc(OC)c1O (stereo partly drawn),17,9.48,30.9,> 100,9.78,,,> 100,> 100,13.8,,42.8,37,9.67

# Source: PubChem BioAssay (NCI)
